ChEMBL document CHEMBL1151757, “Synthesis, radiosynthesis, and biological evaluation of fluorine-18-labeled 2beta-carbo(fluoroalkoxy)-3beta-(3'-((Z)-2-haloethenyl)phenyl)nortropanes: candidate radioligands for in vivo imaging of the serotonin transporter with positron emission tomography” (J Med Chem, 2008)

system: Putamen; assay: Drug uptake in anesthetized cynomolgus monkey brain putamen after 15.5 mins postinjection; assay type: ADME, organism-based, Macaca fascicularis; parameters: unit not given here; conditions: in vivo

Row | Compound | Drug uptake
1 | O=C(OCC[18F])C1C2CCC(CC1c1cccc(/C=C\I)c1)N2 (stereo not given) | 3.61

system: Pons; assay: Drug uptake in anesthetized cynomolgus monkey brain pons after 65 mins postinjection; assay type: ADME, organism-based, Macaca fascicularis; conditions: in vivo

Row | Compound | Drug uptake
2 | O=C(OCC[18F])C1C2CCC(CC1c1cccc(/C=C\I)c1)N2 (stereo not given) | 3.2

system: Thalamus; assay: Drug uptake in anesthetized cynomolgus monkey brain thalamus after 15.5 mins postinjection; assay type: ADME, organism-based, Macaca fascicularis; parameters: unit not given here; conditions: in vivo

Row | Compound | Drug uptake
3 | O=C(OCC[18F])C1C2CCC(CC1c1cccc(/C=C\I)c1)N2 (stereo not given) | 3.48

system: Caudate; assay: Drug uptake in anesthetized cynomolgus monkey brain caudate after 145 mins postinjection; assay type: ADME, organism-based, Macaca fascicularis, Caudate nucleus; conditions: in vivo

Row | Compound | Drug uptake
4 | O=C(OCC[18F])C1C2CCC(CC1c1cccc(/C=C\I)c1)N2 (stereo not given) | 2.75

system: not listed separately; assay: Ratio of drug uptake in midbrain to cerebellum in anesthetized cynomolgus monkey after 18.5 mins postinjection; assay type: ADME, organism-based, Macaca fascicularis; conditions: in vivo

Row | Compound | Ratio
5 | O=C(OCC[18F])C1C2CCC(CC1c1cccc(/C=C\I)c1)N2 (stereo not given) | 1.1

system: Thalamus; assay: Drug uptake in anesthetized cynomolgus monkey brain thalamus after 115 mins postinjection; assay type: ADME, organism-based, Macaca fascicularis; parameters: unit not given here; conditions: in vivo

Row | Compound | Drug uptake
6 | O=C(OCC[18F])C1C2CCC(CC1c1cccc(/C=C\I)c1)N2 (stereo not given) | 3.58

system: Pons; assay: Drug uptake in anesthetized cynomolgus monkey brain pons after 215 mins postinjection; assay type: ADME, organism-based, Macaca fascicularis; conditions: in vivo

Row | Compound | Drug uptake
7 | O=C(OCC[18F])C1C2CCC(CC1c1cccc(/C=C\I)c1)N2 (stereo not given) | 2.08

system: Medulla; assay: Drug uptake in anesthetized cynomolgus monkey brain medulla after 27.5 mins postinjection; assay type: ADME, organism-based, Macaca fascicularis; conditions: in vivo

Row | Compound | Drug uptake
8 | O=C(OCC[18F])C1C2CCC(CC1c1cccc(/C=C\I)c1)N2 (stereo not given) | 3.97

system: not listed separately; assay: Ratio of drug uptake in occipital lobe to cerebellum in anesthetized cynomolgus monkey after 4.5 mins postinjection; assay type: ADME, organism-based, Macaca fascicularis; conditions: in vivo, 0.075 h

Row | Compound | Ratio
9 | O=C(OCC[18F])C1C2CCC(CC1c1cccc(/C=C\I)c1)N2 (stereo not given) | 0.6

system: not listed separately; assay: Ratio of drug uptake in thalamus to cerebellum in anesthetized cynomolgus monkey after 155 mins postinjection; assay type: ADME, organism-based, Macaca fascicularis; conditions: in vivo

Row | Compound | Ratio
10 | O=C(OCC[18F])C1C2CCC(CC1c1cccc(/C=C\I)c1)N2 (stereo not given) | 1.8

system: Midbrain; assay: Drug uptake in anesthetized cynomolgus monkey brain midbrain after 2.5 mins postinjection; assay type: ADME, organism-based, Macaca fascicularis; parameters: unit not given here; conditions: in vivo

Row | Compound | Drug uptake
11 | O=C(OCC[18F])C1C2CCC(CC1c1cccc(/C=C\I)c1)N2 (stereo not given) | 0.54

system: not listed separately; assay: Ratio of drug uptake in pons to cerebellum in anesthetized cynomolgus monkey after 18.5 mins postinjection; assay type: ADME, organism-based, Macaca fascicularis; conditions: in vivo

Row | Compound | Ratio
12 | O=C(OCC[18F])C1C2CCC(CC1c1cccc(/C=C\I)c1)N2 (stereo not given) | 0.7

system: not listed separately; assay: Ratio of drug uptake in putamen to cerebellum in anesthetized cynomolgus monkey after 45 mins postinjection; assay type: ADME, organism-based, Macaca fascicularis; conditions: in vivo, 0.75 h

Row | Compound | Ratio
13 | O=C(OCC[18F])C1C2CCC(CC1c1cccc(/C=C\I)c1)N2 (stereo not given) | 1.2

system: Thalamus; assay: Drug uptake in anesthetized cynomolgus monkey brain thalamus after 125 mins postinjection; assay type: ADME, organism-based, Macaca fascicularis; parameters: unit not given here; conditions: in vivo

Row | Compound | Drug uptake
14 | O=C(OCC[18F])C1C2CCC(CC1c1cccc(/C=C\I)c1)N2 (stereo not given) | 3.41

system: not listed separately; assay: Ratio of drug uptake in thalamus to cerebellum in anesthetized cynomolgus monkey after 115 mins postinjection; assay type: ADME, organism-based, Macaca fascicularis; conditions: in vivo

Row | Compound | Ratio
15 | O=C(OCC[18F])C1C2CCC(CC1c1cccc(/C=C\I)c1)N2 (stereo not given) | 1.7

system: Pons; assay: Drug uptake in anesthetized cynomolgus monkey brain pons after 225 mins postinjection; assay type: ADME, organism-based, Macaca fascicularis; conditions: in vivo, 3.75 h

Row | Compound | Drug uptake
16 | O=C(OCC[18F])C1C2CCC(CC1c1cccc(/C=C\I)c1)N2 (stereo not given) | 2.03

system: Putamen; assay: Drug uptake in anesthetized cynomolgus monkey brain putamen after 0.5 mins postinjection; assay type: ADME, organism-based, Macaca fascicularis; conditions: in vivo

Row | Compound | Drug uptake
17 | O=C(OCC[18F])C1C2CCC(CC1c1cccc(/C=C\I)c1)N2 (stereo not given) | 0

system: Putamen; assay: Drug uptake in anesthetized cynomolgus monkey brain putamen after 155 mins postinjection; assay type: ADME, organism-based, Macaca fascicularis; conditions: in vivo

Row | Compound | Drug uptake
18 | O=C(OCC[18F])C1C2CCC(CC1c1cccc(/C=C\I)c1)N2 (stereo not given) | 3.13

system: Thalamus; assay: Drug uptake in anesthetized cynomolgus monkey brain thalamus after 27.5 mins postinjection; assay type: ADME, organism-based, Macaca fascicularis; parameters: unit not given here; conditions: in vivo

Row | Compound | Drug uptake
19 | O=C(OCC[18F])C1C2CCC(CC1c1cccc(/C=C\I)c1)N2 (stereo not given) | 4.02

system: not listed separately; assay: Ratio of drug uptake in frontal lobe to cerebellum in anesthetized cynomolgus monkey after 95 mins postinjection; assay type: ADME, organism-based, Macaca fascicularis; conditions: in vivo

Row | Compound | Ratio
20 | O=C(OCC[18F])C1C2CCC(CC1c1cccc(/C=C\I)c1)N2 (stereo not given) | 1

system: Medulla; assay: Drug uptake in anesthetized cynomolgus monkey brain medulla after 22.5 mins postinjection; assay type: ADME, organism-based, Macaca fascicularis; conditions: in vivo, 0.375 h

Row | Compound | Drug uptake
21 | O=C(OCC[18F])C1C2CCC(CC1c1cccc(/C=C\I)c1)N2 (stereo not given) | 3.83

system: Caudate; assay: Drug uptake in anesthetized cynomolgus monkey brain caudate after 155 mins postinjection; assay type: ADME, organism-based, Macaca fascicularis, Caudate nucleus; conditions: in vivo

Row | Compound | Drug uptake
22 | O=C(OCC[18F])C1C2CCC(CC1c1cccc(/C=C\I)c1)N2 (stereo not given) | 2.62

system: Putamen; assay: Drug uptake in anesthetized cynomolgus monkey brain putamen after 22.5 mins postinjection; assay type: ADME, organism-based, Macaca fascicularis; parameters: unit not given here; conditions: in vivo, 0.375 h

Row | Compound | Drug uptake
23 | O=C(OCC[18F])C1C2CCC(CC1c1cccc(/C=C\I)c1)N2 (stereo not given) | 3.96

system: Medulla; assay: Drug uptake in anesthetized cynomolgus monkey brain medulla after 55 mins postinjection; assay type: ADME, organism-based, Macaca fascicularis; conditions: in vivo

Row | Compound | Drug uptake
24 | O=C(OCC[18F])C1C2CCC(CC1c1cccc(/C=C\I)c1)N2 (stereo not given) | 3.96

system: not listed separately; assay: Ratio of drug uptake in thalamus to cerebellum in anesthetized cynomolgus monkey after 135 mins postinjection; assay type: ADME, organism-based, Macaca fascicularis; conditions: in vivo, 2.25 h

Row | Compound | Ratio
25 | O=C(OCC[18F])C1C2CCC(CC1c1cccc(/C=C\I)c1)N2 (stereo not given) | 1.8

system: Pons; assay: Drug uptake in anesthetized cynomolgus monkey brain pons after 235 mins postinjection; assay type: ADME, organism-based, Macaca fascicularis; conditions: in vivo

Row | Compound | Drug uptake
26 | O=C(OCC[18F])C1C2CCC(CC1c1cccc(/C=C\I)c1)N2 (stereo not given) | 1.97

system: Pons; assay: Drug uptake in anesthetized cynomolgus monkey brain pons after 22.5 mins postinjection; assay type: ADME, organism-based, Macaca fascicularis; conditions: in vivo, 0.375 h

Row | Compound | Drug uptake
27 | O=C(OCC[18F])C1C2CCC(CC1c1cccc(/C=C\I)c1)N2 (stereo not given) | 3.05

system: Caudate; assay: Drug uptake in anesthetized cynomolgus monkey brain caudate after 22.5 mins postinjection; assay type: ADME, organism-based, Macaca fascicularis, Caudate nucleus; conditions: in vivo, 0.375 h

Row | Compound | Drug uptake
28 | O=C(OCC[18F])C1C2CCC(CC1c1cccc(/C=C\I)c1)N2 (stereo not given) | 3.32

system: Putamen; assay: Drug uptake in anesthetized cynomolgus monkey brain putamen after 4.5 mins postinjection; assay type: ADME, organism-based, Macaca fascicularis; parameters: unit not given here; conditions: in vivo, 0.075 h

Row | Compound | Drug uptake
29 | O=C(OCC[18F])C1C2CCC(CC1c1cccc(/C=C\I)c1)N2 (stereo not given) | 1.53

system: Medulla; assay: Drug uptake in anesthetized cynomolgus monkey brain medulla after 135 mins postinjection; assay type: ADME, organism-based, Macaca fascicularis; conditions: in vivo, 2.25 h

Row | Compound | Drug uptake
30 | O=C(OCC[18F])C1C2CCC(CC1c1cccc(/C=C\I)c1)N2 (stereo not given) | 3.24

system: Caudate; assay: Drug uptake in anesthetized cynomolgus monkey brain caudate after 6.5 mins postinjection; assay type: ADME, organism-based, Macaca fascicularis, Caudate nucleus; conditions: in vivo

Row | Compound | Drug uptake
31 | O=C(OCC[18F])C1C2CCC(CC1c1cccc(/C=C\I)c1)N2 (stereo not given) | 2.02

system: Putamen; assay: Drug uptake in anesthetized cynomolgus monkey brain putamen after 175 mins postinjection; assay type: ADME, organism-based, Macaca fascicularis; conditions: in vivo

Row | Compound | Drug uptake
32 | O=C(OCC[18F])C1C2CCC(CC1c1cccc(/C=C\I)c1)N2 (stereo not given) | 2.93

system: not listed separately; assay: Drug uptake in anesthetized cynomolgus monkey brain occipital lobe after 225 mins postinjection; assay type: ADME, organism-based, Macaca fascicularis; conditions: in vivo, 3.75 h

Row | Compound | Drug uptake
33 | O=C(OCC[18F])C1C2CCC(CC1c1cccc(/C=C\I)c1)N2 (stereo not given) | 1.22

system: Thalamus; assay: Drug uptake in anesthetized cynomolgus monkey brain thalamus after 9.5 mins postinjection; assay type: ADME, organism-based, Macaca fascicularis; parameters: unit not given here; conditions: in vivo

Row | Compound | Drug uptake
34 | O=C(OCC[18F])C1C2CCC(CC1c1cccc(/C=C\I)c1)N2 (stereo not given) | 3.01

system: Caudate; assay: Drug uptake in anesthetized cynomolgus monkey brain caudate after 135 mins postinjection; assay type: ADME, organism-based, Macaca fascicularis, Caudate nucleus; conditions: in vivo, 2.25 h

Row | Compound | Drug uptake
35 | O=C(OCC[18F])C1C2CCC(CC1c1cccc(/C=C\I)c1)N2 (stereo not given) | 2.87

system: Medulla; assay: Drug uptake in anesthetized cynomolgus monkey brain medulla after 9.5 mins postinjection; assay type: ADME, organism-based, Macaca fascicularis; conditions: in vivo

Row | Compound | Drug uptake
36 | O=C(OCC[18F])C1C2CCC(CC1c1cccc(/C=C\I)c1)N2 (stereo not given) | 3.15

system: Pons; assay: Drug uptake in anesthetized cynomolgus monkey brain pons after 3.5 mins postinjection; assay type: ADME, organism-based, Macaca fascicularis; conditions: in vivo

Row | Compound | Drug uptake
37 | O=C(OCC[18F])C1C2CCC(CC1c1cccc(/C=C\I)c1)N2 (stereo not given) | 0.77

system: Medulla; assay: Drug uptake in anesthetized cynomolgus monkey brain medulla after 225 mins postinjection; assay type: ADME, organism-based, Macaca fascicularis; conditions: in vivo, 3.75 h

Row | Compound | Drug uptake
38 | O=C(OCC[18F])C1C2CCC(CC1c1cccc(/C=C\I)c1)N2 (stereo not given) | 2.37

system: Pons; assay: Drug uptake in anesthetized cynomolgus monkey brain pons after 95 mins postinjection; assay type: ADME, organism-based, Macaca fascicularis; conditions: in vivo

Row | Compound | Drug uptake
39 | O=C(OCC[18F])C1C2CCC(CC1c1cccc(/C=C\I)c1)N2 (stereo not given) | 3.05

system: Thalamus; assay: Drug uptake in anesthetized cynomolgus monkey brain thalamus after 35 mins postinjection; assay type: ADME, organism-based, Macaca fascicularis; parameters: unit not given here; conditions: in vivo

Row | Compound | Drug uptake
40 | O=C(OCC[18F])C1C2CCC(CC1c1cccc(/C=C\I)c1)N2 (stereo not given) | 4.2

system: not listed separately; assay: Drug uptake in anesthetized cynomolgus monkey brain frontal lobe after 225 mins postinjection; assay type: ADME, organism-based, Macaca fascicularis; conditions: in vivo, 3.75 h

Row | Compound | Drug uptake
41 | O=C(OCC[18F])C1C2CCC(CC1c1cccc(/C=C\I)c1)N2 (stereo not given) | 1.45

system: Pons; assay: Drug uptake in anesthetized cynomolgus monkey brain pons after 115 mins postinjection; assay type: ADME, organism-based, Macaca fascicularis; conditions: in vivo

Row | Compound | Drug uptake
42 | O=C(OCC[18F])C1C2CCC(CC1c1cccc(/C=C\I)c1)N2 (stereo not given) | 2.86

system: Pons; assay: Drug uptake in anesthetized cynomolgus monkey brain pons after 4.5 mins postinjection; assay type: ADME, organism-based, Macaca fascicularis; conditions: in vivo, 0.075 h

Row | Compound | Drug uptake
43 | O=C(OCC[18F])C1C2CCC(CC1c1cccc(/C=C\I)c1)N2 (stereo not given) | 1.2

system: Medulla; assay: Drug uptake in anesthetized cynomolgus monkey brain medulla after 125 mins postinjection; assay type: ADME, organism-based, Macaca fascicularis; conditions: in vivo

Row | Compound | Drug uptake
44 | O=C(OCC[18F])C1C2CCC(CC1c1cccc(/C=C\I)c1)N2 (stereo not given) | 3.27

system: Medulla; assay: Drug uptake in anesthetized cynomolgus monkey brain medulla after 45 mins postinjection; assay type: ADME, organism-based, Macaca fascicularis; conditions: in vivo, 0.75 h

Row | Compound | Drug uptake
45 | O=C(OCC[18F])C1C2CCC(CC1c1cccc(/C=C\I)c1)N2 (stereo not given) | 4
